The target in experiment [1] is T1, α4β3γ2 GABAA/BzR (Homo sapiens, UniProt P18507+P48169).
T1 construct: expressed in transfected cells; host or cells: LTK cells (given for XLi-093 only)
Description: biochemical. The experiment is classed as binding.

For experiment [2], the target named is T2, α1β3γ2 GABAA/BzR (Homo sapiens, UniProt P14867+P18507). Description: Competition binding to HEK cell membranes, α1β3γ2. Also noted: expressed in transfected cells.
Experiment [3] has as its target T3, α2β3γ2 GABAA/BzR (Homo sapiens, UniProt P18507+P47869). Briefly: Competition binding to HEK cell membranes, α2β3γ2. Further details: expressed in transfected cells.
Experiment [4] concerns the target T4, α3β3γ2 GABAA/BzR (Homo sapiens, UniProt P18507+P34903). Description: Competition binding to HEK cell membranes, α3β3γ2. Further details: expressed in transfected cells.
Experiment [5] concerns the target T5, α5β3γ2 GABAA/BzR (Homo sapiens, UniProt P18507+P31644). Briefly: Competition binding to HEK cell membranes, α5β3γ2. Also noted: expressed in transfected cells.
Experiment [6] has as its target T6, α6β3γ2 GABAA/BzR (Homo sapiens, UniProt P18507+Q16445). Briefly: Competition binding to HEK cell membranes, α6β3γ2. Further details: expressed in transfected cells.
Experiment [7] addresses T2, α1β3γ2 GABAA/BzR. Also noted: expressed in transfected cells; host or cells: LTK cells (given for XLi-093 only). The note with it: cited from earlier work.
The target of experiment [8] is T3, α2β3γ2 GABAA/BzR. Also noted: expressed in transfected cells; host or cells: LTK cells (given for XLi-093 only). The note with it: cited from earlier work.
In experiment [9] the target is T4, α3β3γ2 GABAA/BzR. Further details: expressed in transfected cells; host or cells: LTK cells (given for XLi-093 only). Particulars: cited from earlier work.
Experiment [10] has as its target T5, α5β3γ2 GABAA/BzR. Further details: expressed in transfected cells; host or cells: LTK cells (given for XLi-093 only). The note with it: cited from earlier work.
The target of experiment [11] is T6, α6β3γ2 GABAA/BzR. Also noted: expressed in transfected cells; host or cells: LTK cells (given for XLi-093 only). The note with it: cited from earlier work.

The structures appear in SMILES notation. Like-named read-outs stand apart in the source and are kept apart here. Bounds are passed on as bounds.

The Ki is the dissociation constant of the complex between target and ligand, obtained from inhibition or displacement. Take `C#Cc1ccc2[nH]c3cnc(C(=O)OCC(F)(F)F)cc3c2c1` [WY-B-26-2]: the inhibitory constant (Ki) in experiment [1] was 2000 nM; in experiment [2] (Ki α1) it was 4.45 nM; in experiment [3] (Ki α2), 44.6 nM; in experiment [4] (Ki α3), 42.7 nM; in experiment [5] (Ki α5), 124 nM; in experiment [6] (Ki α6), 2000 nM. In addition, the Ki in [7] (read-out: Affinity Ki α1) was 4.5 nM; in experiment [8] (read-out: Affinity Ki α2) it was 44.6 nM; in experiment [9] (read-out: Affinity Ki α3), 42.7 nM; in [10] (read-out: Affinity Ki α5) it was 124 nM.

As to `CC(C)(C)OC(=O)c1cc2c(cn1)[nH]c1ccc(F)cc12` [CM-A87], the inhibition constant Ki in experiment [1] was determined as 1000 nM; in experiment [2] (Ki α1) it was 1.62 nM; in experiment [2] (read-out: Ki α1) it was 1.62 nM; in experiment [3] (Ki α2), 4.54 nM; in experiment [3] (read-out: Ki α2), 4.54 nM; in [4] (Ki α3) it was 14.7 nM. In addition, the inhibition constant Ki was 14.7 nM in [4] (read-out: Ki α3); 4.61 nM in experiment [5] (Ki α5); 4.61 nM in [5] (read-out: Ki α5); 1000 nM in experiment [6] (Ki α6); 1.62 nM in [7] (read-out: Affinity Ki α1); 4.54 nM in experiment [8] (read-out: Affinity Ki α2). Moreover, the results for the Ki in [9] (read-out: Affinity Ki α3) and in experiment [10] (read-out: Affinity Ki α5) were 14.7 nM and 4.61 nM, respectively.

As to `CC(C)(C)OC(=O)c1cc2c(cn1)[nH]c1ccc(-c3ccccc3)cc12` [WYS15], the inhibition constant Ki in [2] (Ki α1) was found to be 3.63 nM; in experiment [2] (read-out: Ki α1), 3.63 nM; in experiment [3] (Ki α2), 2.02 nM; in experiment [3] (read-out: Ki α2), 2.02 nM; in [4] (Ki α3), 44.3 nM; in [4] (read-out: Ki α3), 44.3 nM. The Ki in experiment [5] (Ki α5) was 76.5 nM; in experiment [5] (read-out: Ki α5), 76.5 nM; in [6] (Ki α6) it was 5000 nM; in experiment [7] (read-out: Affinity Ki α1), 3.63 nM; in experiment [8] (read-out: Affinity Ki α2) it was 2.02 nM; in [9] (read-out: Affinity Ki α3) it was 44.3 nM. The Ki in experiment [10] (read-out: Affinity Ki α5) was 76.5 nM.

As to `C[Si](C)(C)C#Cc1ccc2[nH]c3cnc(C(=O)OCC(F)(F)F)cc3c2c1` [WY-B-25], the Ki in experiment [1] is 2000 nM; in [2] (Ki α1), 7.6 nM; in [3] (Ki α2), 40 nM; in experiment [4] (Ki α3), 66 nM; in experiment [5] (Ki α5), 263 nM; in experiment [6] (Ki α6), 2000 nM. Besides, the Ki in experiment [11] (Figure 33, αxβ3γ2, read-out: Affinity Ki α6) is greater than 3000 nM.

Consider `CCC(OC(=O)c1ncn2c1C1CCCN1C(=O)c1cc(Cl)ccc1-2)C(F)(F)F` (mixture of isomers) [CM-B45], for which the inhibition constant (Ki) in experiment [1] (read-out: Ki α4) worked out at 265 nM; in experiment [2] (read-out: Ki α1), 230 nM; in experiment [3] (read-out: Ki α2) it was 557 nM; in [4] (read-out: Ki α3) it was 336 nM; in experiment [5] (read-out: Ki α5), 15 nM; in [6] (read-out: Ki α6), 230 nM.

`COc1ccc2c(c1)C(=O)N1CCC[C@H]1c1c(C(=O)OCC(F)(F)F)ncn1-2` [CM-E09a]: the Ki in experiment [1] (read-out: Ki α4) turned out to be 490 nM; in experiment [2] (read-out: Ki α1), 176 nM; in [3] (read-out: Ki α2), 192 nM; in experiment [4] (read-out: Ki α3), 122 nM; in experiment [5] (read-out: Ki α5), 9.2 nM; in experiment [6] (read-out: Ki α6) it was 718 nM.

For `CN1Cc2c(CCl)ncn2-c2ccc(Cl)cc2C1=O` [compound 5], the Ki in experiment [7] (Figure 4, read-out: Ki α1) was greater than 300 nM; in [8] (Figure 4, read-out: Ki α2), greater than 300 nM; in experiment [9] (Figure 4, read-out: Ki α3), greater than 300 nM; in experiment [10] (Figure 4, read-out: Ki α5) it was 28.5 nM; in experiment [11] (Figure 4, read-out: Ki α6) it was greater than 300 nM.

Consider `COc1ccc2c(c1)C(=O)N1CCC1c1c(C(=O)OC(C)(C)C)ncn1-2` (stereo not drawn) [CM-D45 C19H21N3O4], for which the Ki is 0.15 nM in experiment [1] (read-out: Ki α4); 90.5 nM in [2] (read-out: Ki α1); 65.5 nM in experiment [3] (read-out: Ki α2); 30.3 nM in experiment [4] (read-out: Ki α3); 1.65 nM in experiment [5] (read-out: Ki α5); 0.23 nM in [6] (read-out: Ki α6).

On to `O=C(OCC(F)(F)F)c1cc2c(cn1)[nH]c1ccccc12` [MMB-II-74], for which the Ki in experiment [1] (read-out: Ki α4) turned out to be 500 nM; in experiment [2] (read-out: Ki α1) it was 3 nM; in [3] (read-out: Ki α2), 24.5 nM; in experiment [4] (read-out: Ki α3) it was 41.7 nM; in experiment [5] (read-out: Ki α5), 126 nM; in experiment [6] (read-out: Ki α6) it was 1000 nM.

`C#Cc1ccc2c(c1)C(=O)N1CCC[C@H]1c1c(-c3nc(C)no3)ncn1-2` [compound 7]: the Ki in experiment [7] (Figure 4, read-out: Ki α1) was greater than 89 nM; in experiment [10] (Figure 4, read-out: Ki α5), 3.7 nM.

`C#Cc1ccc2c(c1)C(c1ccccc1F)=NC(C)C(=O)N2C` (stereo not drawn) [OMB-19]: the Ki in experiment [1] (read-out: Ki α4) was 3330 nM; in experiment [2] (read-out: Ki α1) it was 22 nM; in experiment [3] (read-out: Ki α2), 4.6 nM; in experiment [4] (read-out: Ki α3) it was 20 nM; in [5] (read-out: Ki α5), 3.5 nM; in experiment [6] (read-out: Ki α6), 40 nM.

Source of the values: publication PMC4657098, “A Review of the Updated Pharmacophore for the Alpha 5 GABA(A) Benzodiazepine Receptor Model” (International Journal of Medicinal Chemistry, 2015).
